Patent publication US20200261434A1, “IDH1 INHIBITORS FOR THE TREATMENT OF HAEMATOLOGICAL MALIGNANCIES AND SOLID TUMORS” (Agios Pharmaceuticals, Inc., priority 2016, published 2020)
Positions count from the first letter of the chain named. ≈ marks a conversion by molar mass, not a printed value.

What was measured:
IDH2 R172K = target: T1, IDH2 R172K (Homo sapiens, UniProt P48735, R172K); assay: Phase 1/2 clinical study AG221-C-001, pharmacodynamic response (2-HG), R172K subjects; assay type: in vivo; conditions: subjects with R172K mutation
T1 construct: endogenous in cells; host or cells: malignant haematologic cells of human subjects (in vivo; 2-HG measured in blood)
T1 sequence (P48735 40-452 R172K): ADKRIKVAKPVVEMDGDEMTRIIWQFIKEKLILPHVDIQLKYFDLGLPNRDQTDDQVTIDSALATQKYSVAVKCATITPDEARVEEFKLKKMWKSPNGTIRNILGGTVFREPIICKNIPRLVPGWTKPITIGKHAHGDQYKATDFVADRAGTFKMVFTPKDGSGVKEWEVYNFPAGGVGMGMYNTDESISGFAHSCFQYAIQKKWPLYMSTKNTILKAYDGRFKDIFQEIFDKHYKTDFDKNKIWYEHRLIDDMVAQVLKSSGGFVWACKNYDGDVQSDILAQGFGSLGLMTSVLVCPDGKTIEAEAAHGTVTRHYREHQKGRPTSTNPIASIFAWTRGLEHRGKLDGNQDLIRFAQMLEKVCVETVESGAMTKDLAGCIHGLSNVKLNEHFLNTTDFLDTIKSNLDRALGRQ
Source text: (§1) Three days prior to the start of daily dosing of AG-221 (Day −3), the first 3 subjects enrolled in each cohort in the dose escalation phase and the first 15 subjects enrolled in each arm of Part 1 Expansion will receive a single dose of AG-221 in clinic and have serial blood and urine samples obtained for determination of blood and urine concentrations of AG-221, its metabolite AGI-16903, 2-HG, and α-KG. A full 72-hour PK/PD profile will be conducted: subjects will be required to remain at the study site for 10 hours on Day −3 and return on Days −2, −1, and 1 for 24-, 48-, and 72-hour samples, respectively. During the in-clinic period on Day −3, clinical observation and serial 12-lead ECGs and vital signs assessments will be conducted.
(§2) Subjects in the dose escalation phase and Part 1 Expansion also will undergo PK/PD assessments over a 10-hour period on C1D15, C2D1, and C4D1. […] These subjects will have urine collected for PK/PD evaluation at screening; prior to dosing on C1D15, C2D1 and Day 1 of all cycles thereafter; and at the End of Treatment visit. Available bone marrow biopsy samples also will be assessed for 2-HG and α-KG levels.
(§3) Serial blood sampling for determination of concentration-time profiles of COMPOUND 1 and its metabolite (6-(6-(trifluoromethyl)pyridin-2-yl)-N2-(2-(trifluoromethyl)pyridin-4-yl)-1,3,5-triazine-2,4-diamine). […]

[1] = test system: advanced hematologic malignancies with an IDH2 mutation; assay: Phase 1/2 clinical study AG221-C-001, clinical activity (overall response rate); assay type: in vivo, human; conditions: 44 subjects treated at 100 mg QD, preliminary efficacy data
Source text: Response to treatment and treatment decisions in all subjects will be determined by the Investigators based on modified International Working Group (IWG) response criteriaor other appropriate response criteria for the malignancy under study.
Overall response rate (ORR), the primary efficacy endpoint, is defined as the rate of responders including complete remission (CR), CR with incomplete platelet recovery (CRp), marrow CR (mCR) (morphologic leukemia-free state [MLFS] for subjects with AML), CR with incomplete hematologic recovery (CRi), and partial remission (PR). Other measures of clinical activity including complete remission rate (CRR), duration of remission/response, event-free survival, overall survival, and time to remission/response will be summarized.
For Phase 1 Dose Escalation/Part 1 Expansion, the efficacy analysis of response rates as assessed by the site Investigators using modified International Working Group (IWG) response criteria will be conducted in Full Analysis Set for each dose level, expansion arm, and overall if appropriate.

[2] = Phase 1/2 clinical study AG221-C-001, safety; assay type: in vivo, human; conditions: 100 mg
Source text: Toxicity severity will be graded according to the National Cancer Institute Common Terminology Criteria for Adverse Events (NCI CTCAE) Version 4.03. A DLT is defined as outlined below.
Monitoring of AEs, including determination of DLTs, serious adverse events (SAEs), and AEs leading to discontinuation; safety laboratory parameters; physical examination findings; vital signs; 12-lead ECGs; LVEF; and ECOG PS.
The severity of AEs will be assessed by the NCI CTCAE, Version 4.03.

IDH2 R140Q = target: T2, IDH2 R140Q (Homo sapiens, UniProt P48735, R140Q); assay: Phase 1/2 clinical study AG221-C-001, pharmacodynamic response (2-HG plasma levels), R140Q subjects; assay type: in vivo; conditions: most subjects with R140Q mutation, all doses, by Day 1 of Cycle 2
T2 construct: endogenous in cells; host or cells: malignant haematologic cells of human subjects (in vivo; 2-HG measured in plasma)
T2 sequence (P48735 40-452 R140Q): T1 sequence (P48735 40-452 R172K) with R101Q, K133R
Source text: as §1, §2, §3

[3] = solubility in fasted state simulated intestinal fluid (FASSIF); assay type: physicochemical; conditions: pH 6.1, at 4 hours

| Structure (SMILES) | inhibition of 2-HG and exposure, dependence on dose (IDH2 R172K) | overall response rate [1] | safety profile, including ≥Grade 3 [2] | inhibition of 2-HG plasma levels (IDH2 R140Q) | solubility at 4 h [3] |
| --- | --- | --- | --- | --- | --- |
| CC(C)(O)CNc1nc(Nc2ccnc(C(F)(F)F)c2)nc(-c2cccc(C(F)(F)F)n2)n1 [COMPOUND 1, 2-methyl-1-[(4-[6-(trifluoromethyl)pyridin-2-yl]-6-{[2-(trifluoromethyl)pyridin-4-yl]amino}-1,3,5-triazin-2-yl)amino]propan-2-ol] | Increasing dose is associated with higher exposure and inhibition of 2-HG | 36.4% | consistent with that of lower doses | up to 98% |  |
| N#Cc1ccnc(N2C(=O)CC[C@H]2C(=O)N(c2cncc(F)c2)[C@H](C(=O)NC2CC(F)(F)C2)c2ccccc2Cl)c1 [Form 2, (S)—N—((S)-1-(2-chlorophenyl)-2-((3,3-difluorocyclobutyl)amino)-2-oxoethyl)-1-(4-cyanopyridin-2-yl)-N-(5-fluoropyridin-3-yl)-5-oxopyrrolidine-2-carboxamide] |  |  |  |  | ~18 µg/mL (≈ 30.9 µM) |
